Test results: US11298363B2, “Triazolobenzazepines as vasopressin V1a receptor antagonists” (RICHTER GEDEON NYRT., priority 2017, dated 2022)
Marks after values point to notes of the source that are not given here.

Tests used:
[1] = molecular target: T1, human vasopressin V1a receptor (Homo sapiens, UniProt P37288); test: Human vasopressin V1a receptor binding assay; conditions: 1321N1 cell membranes, [3H]vasopressin; read-out: Ki (nM) on hV1a cell line
Summary of the method: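 Ki values come from IC50 via Cheng-Prusoff (KD from prior Scatchard), averaged over at least two independent runs. Human V1a membranes were incubated with radioligand 60 minutes at 27° C., bound ligand collected by filtration; (Arg^8)-vasopressin at 1.2×10^−6 M defined non-specific binding.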

[2] = molecular target: T1, human vasopressin V1a receptor; test: Functional assay on human vasopressin V1a receptor expressing cell line (intracellular Ca2+ fluorescence); type: cell-based; conditions: 1321N1 cells, (Arg8)-vasopressin at EC80; read-out: IC50 (nM) on hV1a cell line
[3] = molecular target: mouse vasopressin V1a receptor (Mus musculus, UniProt Q62463); test: Mouse vasopressin V1a receptor binding assay; conditions: 1321N1 cell membranes; read-out: Ki (nM) on mV1a cell line
Sequence of mouse vasopressin V1a receptor (Q62463 whole entry): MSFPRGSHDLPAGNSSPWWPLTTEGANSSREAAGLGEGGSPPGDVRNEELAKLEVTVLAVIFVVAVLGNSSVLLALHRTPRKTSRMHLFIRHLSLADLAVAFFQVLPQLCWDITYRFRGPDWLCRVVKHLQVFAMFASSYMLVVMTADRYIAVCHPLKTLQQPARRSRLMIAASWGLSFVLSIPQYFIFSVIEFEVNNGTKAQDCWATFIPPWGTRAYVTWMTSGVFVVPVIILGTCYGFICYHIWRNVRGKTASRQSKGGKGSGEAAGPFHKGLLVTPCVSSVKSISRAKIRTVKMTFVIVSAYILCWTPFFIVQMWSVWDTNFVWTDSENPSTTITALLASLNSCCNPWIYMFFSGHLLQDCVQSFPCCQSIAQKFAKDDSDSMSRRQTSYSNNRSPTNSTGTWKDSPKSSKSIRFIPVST
From the text: Mouse Vasopressin V1a Receptor Binding Assay Cells and Radioligand
The immortalized 1321N1 cell line (B9/1321N1 clone) constitutively and stably expressing Mouse vasopressin V1a receptor vasopressin (8-L-Arginine), [Phenylalanyl-3,4,5-^3H(N)] labelled compound (Perkin Elmer Life and Analytical Sciences) as radioligand were used to determine the affinity of the prepared compounds.
Membrane-preparation: Membrane preparation of immortalized 1321N1 cells expressing the propagated mouse Vasopressin V1a receptor was made according to Jarvis's method (Jarvis et al., J Pharmacol Exp Ther […], 310:407-16). Cells were suspended in preparative buffer (50 mM Tris, 1 mM EDTA, 0.1 mM PMSF) and homogenized with glass homogenizing potter. To separate the raw membrane fraction two consecutive centrifugation procedures (40,000 g for 25 minutes at 4° C.) were executed, then the membrane was taken into the preparatory buffer during a final washing step, it was divided into aliquots which were stored at −80° C. until the time of measurement.
The protein content of the prepared membrane was determined according to Lowry's method using standard dilution line of bovine serum albumin (BSA) (Lowry et al., J Biol Chem 1951, 193:265-75).
To determine the final affinity value, the results of at least two independent experiments were taken into account.
Non-specific binding values were determined in the presence of an unlabeled 1.2×10^−6 M (Arg^8)-vasopressin. Samples were incubated in a total volume of 0.33 ml for 60 minutes at 27° C. Membrane-bound and free ligands were separated by filtration through a 0.5% polyethyleneimine-impregnated UniFilter® GF/B™ After drying the filter plates, 40 μl Microscint-20 (Packard) scintillation cocktail was added to the samples. Finally, radioactivity was measured using MicroBeta^2 Microplate Counter (Perkin Elmer).
The radioligand clamping ability of a substance is determined in at least two independent experiments. Specific radioligand binding can be defined as the difference between total and non-specific binding in the presence of a saturation amount of the unlabeled ligand or different concentrations of the substance to be tested. The results are given as a percentage of inhibition of the specific binding achieved in the presence of the substance to be tested.
The IC50 data (i.e. the concentration of the unknown substance which displaces 50% of specific bound radioligand) is calculated from the concentration-displacement curve using the sigmoid fitting mathematical method y=(A1−A2)/(1+(x/x0)p)+A2 with Origin 7.5. software (OriginLab Corporation, Northampton, USA). During fitting, the asymptotes are not fixed. The Ki values (inhibition constant) are given with Cheng-Prusoff equation Ki=IC50/[1+(L/KD)] wherein [L] is the radioligand concentration used in the experiment and [KD] is the affinity of the radioactively labelled ligand for the given receptor. The KD is determined beforehand using the Scatchard curve.

mouse V1a receptor = mouse V1a receptor (Mus musculus, UniProt Q62463); test: Functional V1a in vivo test: inhibition of oxytocin-induced scratching behaviour; conditions: mice
Sequence of mouse V1a receptor (Q62463 whole entry): as above
Method: Functional V1a In Vivo Test
Male mice (NMRI, ToxiCoop) weighing 18-40 g were used. Animals were kept at least 5 days after delivery, during housing and measurements they were fed and drink ad libitum. The experiments were permitted by the Local Animal Protection Committee and carried out in accordance with the European Animal Protection Directives (EU Directive 2010/63/EU).
Animal behaviour was measured by an automated behavioral analysis system (LABORAS™). The sensors located below platforms detect the mechanical vibration generated by the movement of animal, and transform into an electrical signal (Quinn et al., J Neurosci Methods 2003, 130:83-92). After analyzing signals, the system analyzes the time spent with the following behavioral parameters: locomotion, immobility, climbing, grooming. The grooming algorithm by definition is able to measure the scratching behavioral response. During the experiment, mice were pretreated with the test substance or vehicle, and after the pretreatment period scratching-inducing compound (s.c. 0.3 mg/kg oxytocin) was administered, and then the animals were individually placed into measuring cages. […] To reduce the exploratory activity, the animals were measured after a 1-hour habituation to the cage. The behavioural parameters were compared to the parallel measured parameters of the control animals.
The behavioural inhibitory effect of the substances was calculated with average values of parallel measured vehicle treated groups and presented as the percentage of inhibition: 0% was expressed as average value of scratching behaviour of vehicle pretreated animals (and phys. saline s.c. pretreated with vehicle), while 100% was expressed as average value of scratching of vehicle pretreated animals that received oxytocin subcutaneously. For statistical analysis one-way analysis of variance (ANOVA) with Tukey post hoc test were used.

[4] = system: Prenatally valproate-treated rats; test: Prenatal valproate model of ASD, social approach avoidance paradigm; type: in vivo, rat; conditions: VPA rats; for social approach avoidance active contact time: mean ± S.E.M.; for social approach avoidance % effect: VEH/VEH = 100%, VPA/VEH = 0%
Method: (§1) The Prenatal Valproate Model of Autism Spectrum Disorder (ASD) in Rats
(§2) The prenatal valproate model has excellent construct and face validity, thus it is a widely accepted animal model of ASD (Christensen et al, JAMA 2013, 309:1696-1703; Roullet et al, Neurotoxicol Teratol. 2013, 36:45-56). In this model, time-mated female Wistar rats (Harlan, UK) were treated with single-dose of valproic acid (VPA, i.p. 600 mg/kg) on 12.5 days of pregnancy. After birth and separation, the examined male offsprings were kept under standard laboratory conditions until completion of the studies. Four animals were kept together in standard cages at 22-24° C. external temperature and in 12-12 hour light-dark cycle (07.30 a.m.-07.30 p.m.). Food and water were available ad libitum. After once daily treatment with the test substance for 7 days and pretreatment on the day of measurement, the behaviour of the rats was assessed in the social preference test on the 59th or 60th postnatal day. The social preference test is a largely accepted test method for determining the autistic behaviour of rodents (Nadler et al, Genes Brain Behav 2004, 3:303-314; Bambini-Junior et al, Brain Res 2011, 1408:8-16). The test consists of two paradigms, the first is the social approach avoidance test. In this paradigm the social behaviour of examined animals can be determined with a special three-chamber apparatus. In the apparatus, the contact behaviour of the conspecific and empty separated area surrounded with a perforated wall can be examined and compared. […] One day later, on the 60th postnatal day, rats were tested in the social memory and recognition paradigm. In this, the contact behaviour with a new, previously unknown conspecific can be measured compared to a familiar conspecific.

[5] = system: Prenatally valproate-treated rats; test: Prenatal valproate model of ASD, social memory recognition paradigm; type: in vivo, rat; conditions: VPA rats; for social memory recognition active novelty contact time: mean ± S.E.M.; for social memory recognition % effect: VEH/VEH = 100%, VPA/VEH = 0%
Method: as §1, §2
Unexpectedly, the treatment reversed the value of VPA/VEH to the value of VEH/VEH treated animals.

V1aR [6] = molecular target: T2, V1aR (Homo sapiens, UniProt P37288); conditions: cited from earlier work
Target sequence in this assay (P37288 whole entry, species assumed): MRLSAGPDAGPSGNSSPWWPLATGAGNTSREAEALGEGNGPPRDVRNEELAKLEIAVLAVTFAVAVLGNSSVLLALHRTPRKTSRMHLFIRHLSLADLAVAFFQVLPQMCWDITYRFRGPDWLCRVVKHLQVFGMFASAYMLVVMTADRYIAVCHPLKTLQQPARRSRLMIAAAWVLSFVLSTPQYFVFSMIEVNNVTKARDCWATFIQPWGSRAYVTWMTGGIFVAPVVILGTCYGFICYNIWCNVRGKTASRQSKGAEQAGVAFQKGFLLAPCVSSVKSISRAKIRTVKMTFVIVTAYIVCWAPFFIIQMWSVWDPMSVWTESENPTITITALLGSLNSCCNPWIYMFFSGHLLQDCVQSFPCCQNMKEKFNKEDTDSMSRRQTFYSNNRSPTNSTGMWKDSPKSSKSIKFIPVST

V1aR [7] = molecular target: T2, V1aR; conditions: humans, Phase 1; cited from earlier work
Target sequence in this assay (P37288 whole entry): as the sequence (P37288 whole entry, species assumed) above

[8] = rats; cited from earlier work
human V1a receptor = human V1a receptor (Homo sapiens, UniProt P37288); conditions: cited from earlier work
Sequence of human V1a receptor (P37288 whole entry): as the sequence (P37288 whole entry, species assumed) above

[9] = after i.p. treatment (table title: 10 mg/kg)

T1 sequence (P37288 whole entry): as the sequence (P37288 whole entry, species assumed) above

Question: Which Ki [1] does the source give for `CC(C)NC1Cc2cc(Cl)ccc2-n2c(nnc2[C@H]2CC[C@H](Oc3ccccn3)CC2)C1` (stereo partly drawn) [Example 24, 8-chloro-N-(propan-2-yl)-1-[trans-4-(pyridin-2-yloxy)cyclohexyl]-5,6-dihydro-4H-[1,2,4]triazolo[4,3-a][1]benzazepine-5-amine] here?
Answer: The Ki was 1 nM.

Question: What about the IC50 [2] of the same molecule?
Answer: Its IC50 is 7 nM.

Question: And the Ki [3]?
Answer: The Ki was 25 nM.

Question: And the “inhibition (%) of oxytocin-induced scratching behaviour response” value (mouse V1a receptor; [9])?
Answer: The value was 94* %.

Question: For `CC(C)N[C@H]1Cc2cc(Cl)ccc2-n2c(nnc2[C@H]2CC[C@H](Oc3ccccn3)CC2)C1` [Example 25], which Ki [1] is on record?
Answer: The Ki was 2.3 nM.

Question: What about the IC50 [2] of the same molecule?
Answer: Its IC50 is 23 nM.

Question: What about the Ki [3] of the same molecule?
Answer: Its Ki is 353 nM.

Question: What about the “inhibition (%) of oxytocin-induced scratching behaviour response” value (mouse V1a receptor; [9]) of the same molecule?
Answer: The value was 42* %.

Question: With `CC(C)N[C@@H]1Cc2cc(Cl)ccc2-n2c(nnc2[C@H]2CC[C@H](Oc3ccccn3)CC2)C1` [Example 26] as the molecule, how does the “social approach avoidance active contact time” value ([4]; 1.5 mg/kg i.p.) read?
Answer: Its value is 71.2 ± 15.9 s.

Question: And the “social approach avoidance % effect” value ([4]; 1.5 mg/kg i.p.)?
Answer: Its value is 30%.

Question: And the “social approach avoidance active contact time” value ([4]; 5 mg/kg i.p.)?
Answer: Its value is 116.4 ± 22.5 s.

Question: And the “social approach avoidance % effect” value ([4]; 5 mg/kg i.p.)?
Answer: Its value is 75%.

Question: And the “social approach avoidance active contact time” value ([4]; 15 mg/kg i.p.)?
Answer: The value was 148.7 ± 8.3 s.

Question: And the “social approach avoidance % effect” value ([4]; 15 mg/kg i.p.)?
Answer: The value was 107%.

Question: What about the Ki [1] of the same molecule?
Answer: Its Ki is 0.7 nM.

Question: What about the IC50 [2] of the same molecule?
Answer: Its IC50 is 4.5 nM.

Question: What about the Ki [3] of the same molecule?
Answer: The Ki was 15 nM.

Question: And the “social memory recognition active novelty contact time” value ([5]; 1.5 mg/kg i.p.)?
Answer: Its value is 83.7 ± 11.8 s.

Question: And the “social memory recognition % effect” value ([5]; 1.5 mg/kg i.p.)?
Answer: Its value is 66%.

Question: And the “social memory recognition active novelty contact time” value ([5]; 5 mg/kg i.p.)?
Answer: The value was 133.5 ± 10.0 s.

Question: And the “social memory recognition % effect” value ([5]; 5 mg/kg i.p.)?
Answer: Its value is 115%.

Question: And the “social memory recognition active novelty contact time” value ([5]; 15 mg/kg i.p.)?
Answer: Its value is 141.9 ± 9.1 s.

Question: And the “social memory recognition % effect” value ([5]; 15 mg/kg i.p.)?
Answer: Its value is 124%.

Question: Which results are given for `Clc1ccc2c(c1)CC1(Cc3nnc([C@H]4CC[C@H](Oc5ccccn5)CC4)n3-2)OCCO1` [Example 53, 8′-chloro-1′-[trans-4-(pyridin-2-yloxy)cyclohexyl]-4′H,6′H-spiro[1,3-dioxolane-2,5′-[1,2,4]triazolo[4,3-a][1]benzazepine]]?
Answer: Ki [3]: 1.1 nM; inhibition (%) of oxytocin-induced scratching behaviour response (mouse V1a receptor; 10 mg/kg p.o. pretreatment): 118%

Question: With `CN1Cc2cc(Cl)ccc2-n2c(nnc2C2CCN(c3ccccn3)CC2)C1` [PF-184563] as the molecule, how does the V1aR antagonism (V1aR [6]) read?
Answer: The V1aR antagonism was “efficient V1aR antagonists”.

Question: With `CN(C)CCn1cc(C(=O)N2CCC3(CC2)OCc2ccccc23)c2ccc(Cl)cc21` [RO5028442] as the molecule, how does the “orientation of eye-gaze pattern” value (V1aR [7]) read?
Answer: The value was “positive effect”.

Question: Which “social approach avoidance active contact time” value ([4]; 5 mg/kg i.p.) does the source give for `O=C(CCCCCCC(=O)Nc1ccccc1)NO` [SAHA, suberoil anilide, reference compound] here?
Answer: Its value is 156.0 ± 6.7 s.

Question: And the “social approach avoidance % effect” value ([4]; 5 mg/kg i.p.)?
Answer: The value was 115%.

Question: And the “time spent with social seeking response / social behaviour” value ([4]; result in words)?
Answer: The value was “statistically significant increase”.

Question: And the “social memory recognition active novelty contact time” value ([5]; 5 mg/kg i.p.)?
Answer: Its value is 155.5 ± 5.8 s.

Question: And the “social memory recognition % effect” value ([5]; 5 mg/kg i.p.)?
Answer: The value was 137%.

Question: And the “active time spent with seeking response towards new animal” value ([5]; result in words)?
Answer: The value was “statistically significant increase”.

Question: Which results are given for `CN(Cc1cccc(C(F)(F)F)c1)C(=O)[C@@H](CC(=O)N1CCC(N2CCCCC2)CC1)N1C(=O)[C@@H](N2C(=O)OC[C@@H]2c2ccccc2)[C@H]1/C=C/c1ccccc1` [SRX-251]?
Answer: brain level relative to effective concentrations detected in the binding assay [8]: approximately 100 fold; activity on the human V1a receptor (human V1a receptor): active
